From US4087613A, “1,3,5- Or 1,3,6-naphthalenetriyltris(sulfonylimino)aryl acids and salts” (American Cyanamid Company, priority 1977, dated 1978)
Where a name gives a salt, the structure may show the parent alone.

Key:
activated human C1 = target: T1, activated human C1 (Homo sapiens, UniProt P09871); assay: Test, Code 026 (C1 inhibitor): protection of human C2 from activated human C1 and C4; type: biochemical; conditions: serial two-fold dilution assay; higher well number indicates higher activity
T1 construct: fluid-phase human C2 substrate in presence of C4
Source text: (§1) An active inhibitor protects C2 from C1 and C4; (ii) Test, Code 035 (C3-C9 inhibitor) -- This test determines the ability of the late components of human complement (C3-C9) to lyse EAC 142 in the presence of appropriate dilutions of the test compound. An active inhibitor protects EAC 142 from lysis by human C3-C9; (iii) Test, Code 036 (C-Shunt inhibitor) -- In this test human erythrocytes rendered fragile are lysed in autologous serum via the shunt pathway activated by cobra venom factor in the presence of appropriate dilutions of the test compound. Inhibition of the shunt pathway results in failure of lysis; (iv) Forssman Vasculitis Test -- Here, the well known complement dependent lesion, Forssman vasculitis, is produced in guinea pigs by intradermal injection of rabbit anti-Forssman antiserum. The lesion is measured in terms of diameter, edema and hemorrhage and the extent to which a combined index of these is inhibited by prior intraperitoneal injection of the test compound at 200 mg/kg is then reported, unless otherwise stated; (v) Forssman Shock Test -- Lethal shock is produced in guinea pigs by an i.v. injection of anti-Forssman antiserum and the harmonic mean death time of treated guinea pigs is compared with that of simultaneous controls; (vi) Complement Level Reduction Test -- In this test, the above dosed guinea pigs, or others, are bled for serum and the complement level is determined in undiluted serum by the capillary tube method of U.S. Pat. No. 3,876,376 and compared to undosed control guinea pigs; and (vii) Cap 50 Test -- Here, appropriate amounts of the test compound are added to a pool of guinea pig serum in vitro, after which the undiluted serum capillary tube assay referred to above is run. The concentration of compound inhibiting 50% is reported.
(§2) **Activity in wells a serial dilution assay. Higher well number indicates
(§3) higher activity. The serial dilutions are two-fold.

[1] = system: late components of human complement (C3-C9); assay: Test, Code 035 (C3-C9 inhibitor): lysis of EAC 142 by late components of human complement; type: biochemical; set-up: key: Negative; conditions: serial two-fold dilution assay; higher well number indicates higher activity
Source text: as §1, §2, §3

shunt pathway = assay: Test, Code 036 (C-Shunt inhibitor): lysis of human erythrocytes via the shunt pathway activated by cobra venom factor; type: biochemical; set-up: key: Negative; conditions: serial two-fold dilution assay; higher well number indicates higher activity
Source text: as §1, §2, §3

complement system = conditions: literature report; cited from earlier work
whole complement = assay: Complement Level Reduction Test: whole complement in serum of dosed guinea pigs, capillary tube assay; type: in vivo; conditions: 200 mg/kg
Source text: as §1
With reference to Table I, guinea pigs weighing about 300 g were dosed intravenously (i.v.) or intraperitoneally (i.p.) with 200 mg/kg of the test compound dissolved in saline and adjusted to pH 7-8. […] The serum was tested for whole complement using the capillary tube assay. Percent inhibition was calculated by comparison with simultaneous controls. The results appear in Table I together with results of tests, code 026, 035, 036, Cap 50, % inhibition and Forssman shock.

[2] = system: hereditary angioneurotic edema; conditions: The New England Journal of Medicine, 286, 808-812 (1972); cited from earlier work

T1 sequence (P09871 16-688): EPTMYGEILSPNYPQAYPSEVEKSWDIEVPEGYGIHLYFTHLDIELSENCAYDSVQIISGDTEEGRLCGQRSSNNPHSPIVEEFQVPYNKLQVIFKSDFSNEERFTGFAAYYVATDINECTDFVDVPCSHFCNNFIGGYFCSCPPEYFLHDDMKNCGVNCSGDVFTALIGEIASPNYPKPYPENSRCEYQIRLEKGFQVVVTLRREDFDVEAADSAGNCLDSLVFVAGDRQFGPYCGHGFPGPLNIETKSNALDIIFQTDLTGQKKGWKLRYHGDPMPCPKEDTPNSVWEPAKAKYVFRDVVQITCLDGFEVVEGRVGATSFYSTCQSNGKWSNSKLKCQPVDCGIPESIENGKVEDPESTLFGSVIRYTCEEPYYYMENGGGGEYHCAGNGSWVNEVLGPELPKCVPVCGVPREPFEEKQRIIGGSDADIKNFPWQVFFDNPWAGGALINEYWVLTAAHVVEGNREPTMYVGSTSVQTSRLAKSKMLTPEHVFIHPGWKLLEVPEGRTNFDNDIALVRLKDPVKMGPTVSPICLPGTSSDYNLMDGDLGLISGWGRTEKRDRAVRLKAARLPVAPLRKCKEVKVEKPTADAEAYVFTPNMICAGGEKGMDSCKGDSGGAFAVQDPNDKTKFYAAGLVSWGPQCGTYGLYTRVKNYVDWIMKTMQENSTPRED
T1 sequence (P00736 18-705 partner): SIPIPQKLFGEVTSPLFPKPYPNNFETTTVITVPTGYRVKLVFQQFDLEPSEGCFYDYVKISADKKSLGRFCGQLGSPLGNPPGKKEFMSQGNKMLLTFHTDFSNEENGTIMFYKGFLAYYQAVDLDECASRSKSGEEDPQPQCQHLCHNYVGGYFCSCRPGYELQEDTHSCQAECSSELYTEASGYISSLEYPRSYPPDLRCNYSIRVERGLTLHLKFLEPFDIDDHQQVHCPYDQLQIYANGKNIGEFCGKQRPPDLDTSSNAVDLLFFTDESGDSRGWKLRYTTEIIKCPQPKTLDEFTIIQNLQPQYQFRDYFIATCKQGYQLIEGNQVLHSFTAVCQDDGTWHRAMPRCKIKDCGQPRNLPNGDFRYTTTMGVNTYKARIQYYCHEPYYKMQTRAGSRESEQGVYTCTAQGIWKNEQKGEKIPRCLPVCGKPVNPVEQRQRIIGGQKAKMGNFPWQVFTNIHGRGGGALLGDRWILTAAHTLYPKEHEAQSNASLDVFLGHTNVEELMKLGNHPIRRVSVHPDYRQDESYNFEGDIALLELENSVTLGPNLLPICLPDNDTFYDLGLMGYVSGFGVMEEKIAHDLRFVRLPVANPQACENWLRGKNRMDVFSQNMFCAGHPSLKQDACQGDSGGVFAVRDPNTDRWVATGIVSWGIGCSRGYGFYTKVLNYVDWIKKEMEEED
T1 sequence (P02745 23-245 partner): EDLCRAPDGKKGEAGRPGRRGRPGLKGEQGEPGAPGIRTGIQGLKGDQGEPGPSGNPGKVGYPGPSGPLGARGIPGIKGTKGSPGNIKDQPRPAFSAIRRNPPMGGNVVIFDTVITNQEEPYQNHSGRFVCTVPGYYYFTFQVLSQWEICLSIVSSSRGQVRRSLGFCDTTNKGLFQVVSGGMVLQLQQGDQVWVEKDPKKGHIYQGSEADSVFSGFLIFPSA
T1 sequence (P02746 28-253 partner): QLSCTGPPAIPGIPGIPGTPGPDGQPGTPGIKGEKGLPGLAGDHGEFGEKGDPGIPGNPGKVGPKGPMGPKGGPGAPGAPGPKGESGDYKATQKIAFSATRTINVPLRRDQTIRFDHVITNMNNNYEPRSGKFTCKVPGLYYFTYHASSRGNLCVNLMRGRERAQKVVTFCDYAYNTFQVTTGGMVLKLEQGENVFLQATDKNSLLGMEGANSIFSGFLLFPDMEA
T1 sequence (P02747 29-245 partner): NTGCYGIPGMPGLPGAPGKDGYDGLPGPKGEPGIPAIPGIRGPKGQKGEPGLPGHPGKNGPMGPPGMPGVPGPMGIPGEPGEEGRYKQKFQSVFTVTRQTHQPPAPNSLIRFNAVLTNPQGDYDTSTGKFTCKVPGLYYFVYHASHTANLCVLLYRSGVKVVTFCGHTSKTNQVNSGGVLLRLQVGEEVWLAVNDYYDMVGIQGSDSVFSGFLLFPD

Molecule | C1 026 Wells (activated human C1) | C-Late 035 Wells [1] | Shunt Inhibition 036 Wells (shunt pathway) | anticomplementary / complement inhibiting effect (complement system) | In Vivo Activity (Guinea Pig) % Inhibition, Intraperitoneal, 30 minutes (whole complement) [%] | In Vivo Activity (Guinea Pig) % Inhibition, Intraperitoneal, 60 minutes (whole complement) [%] | In Vivo Activity (Guinea Pig) % Inhibition, Intraperitoneal, 120 minutes (whole complement) [%] | use in the treatment of hereditary angioneurotic edema [2]
O=C([O-])c1cccc(NS(=O)(=O)c2ccc3c(S(=O)(=O)Nc4cccc(C(=O)[O-])c4)cc(S(=O)(=O)Nc4cccc(C(=O)[O-])c4)cc3c2)c1.[Na+].[Na+].[Na+] [3,3',3"-[1,3,6-Naphthalenetriyltris(sulfonylimino)]tribenzoic acid trisodium salt] | +3 wells | N | N | – | – | – | – | –
Nc1ccc2cc(S(=O)(=O)O)cc(O)c2c1N=Nc1ccc(NC(=O)Nc2ccc(N=Nc3c(N)ccc4cc(S(=O)(=O)O)cc(O)c34)c(S(=O)(=O)O)c2)cc1S(=O)(=O)O [chlorazol fast pink, 3,3'-ureylenebis-[6-(2-amino-8-hydroxy-6-sulfo-1-naphthylazo)]benzenesulfonic acid, tetrasodium salt] | – | – | – | anticomplementary effect | – | – | – | –
O=C([O-])c1ccc(NS(=O)(=O)c2ccc3c(S(=O)(=O)Nc4ccc(C(=O)[O-])cc4)cc(S(=O)(=O)Nc4ccc(C(=O)[O-])cc4)cc3c2)cc1.[Na+].[Na+].[Na+] [4,4',4"-[1,3,6-Naphthalenetriyltris(sulfonylimino)]tribenzoic acid trisodium salt] | – | N | N | – | – | – | – | –
O=C(O)c1cc(NS(=O)(=O)c2ccc3c(S(=O)(=O)Nc4cc(C(=O)O)c(O)c(C(=O)O)c4)cc(S(=O)(=O)Nc4cc(C(=O)O)c(O)c(C(=O)O)c4)cc3c2)cc(C(=O)O)c1O [5,5',5"-[1,3,6-Naphthalenetriyltris(sulfonylimino)]-tris[2-hydroxyisophthalic acid]] | +5 wells | +1 wells | +4 wells | – | -69 | -59 | -58 | –
CN(c1cc(C(=O)O)cc(C(=O)O)c1)S(=O)(=O)c1ccc2c(S(=O)(=O)N(C)c3cc(C(=O)O)cc(C(=O)O)c3)cc(S(=O)(=O)N(C)c3cc(C(=O)O)cc(C(=O)O)c3)cc2c1 [5,5',5"-[1,3,6-Naphthalenetriyltris(sulfonylmethylimino)]triisophthalic acid hexasodium salt] | +3 wells | N | N | – | – | – | – | –
NCCCCCC(=O)O [epsilon-aminocaproic acid] | – | – | – | – | – | – | – | used with success
O=C([O-])c1cc(NS(=O)(=O)c2ccc3c(S(=O)(=O)Nc4cc(C(=O)[O-])cc(C(=O)[O-])c4)cc(S(=O)(=O)Nc4cc(C(=O)[O-])cc(C(=O)[O-])c4)cc3c2)cc(C(=O)[O-])c1.[Na+].[Na+].[Na+].[Na+].[Na+].[Na+] [5,5',5"-[1,3,6-Naphthalenetriyltris(sulfonylimino)]triisophthalic acid hexasodium salt] | – | N | – | – | -67 | -79 | -84 | –
O=C(O)c1cc(NS(=O)(=O)c2ccc3c(S(=O)(=O)Nc4ccc(O)c(C(=O)O)c4)cc(S(=O)(=O)Nc4ccc(O)c(C(=O)O)c4)cc3c2)ccc1O [3,3',3"-[1,3,6-Naphthalenetriyltris(sulfonylimino)]tris[6-hydroxybenzoic acid]] | +1 wells | N | N | – | – | – | – | –
8-(3-benzamido-4-methylbenzamido)naphthalene-1,3,5-trisulfonic acid [Suramin] | – | – | – | competitive inhibitor of the complement system | – | – | – | used with success
NC[C@H]1CC[C@H](C(=O)O)CC1 [tranexamic acid] | – | – | – | – | – | – | – | used with success
heparin | – | – | – | anticomplementary effect | – | – | – | –
O=C([O-])c1cc(NS(=O)(=O)c2ccc3c(S(=O)(=O)Nc4cc(C(=O)[O-])c(C(=O)[O-])c(C(=O)[O-])c4)cc(S(=O)(=O)Nc4cc(C(=O)[O-])c(C(=O)[O-])c(C(=O)[O-])c4)cc3c2)cc(C(=O)[O-])c1C(=O)[O-].[Na+].[Na+].[Na+].[Na+].[Na+].[Na+].[Na+].[Na+].[Na+] [5,5',5"-[1,3,6-Naphthalenetriyltris(sulfonylimino)]tri-1,2,3-benzenetricarboxylic acid nonasodium salt] | +8 wells | – | – | – | -63 | -71 | -71 | –
O=C(O)c1cc(NS(=O)(=O)c2ccc3c(S(=O)(=O)Nc4cc(C(=O)O)cc(C(=O)O)c4)cc(S(=O)(=O)Nc4cc(C(=O)O)cc(C(=O)O)c4)cc3c2)cc(C(=O)O)c1 [5,5',5"-[1,3,6-Naphthalenetriyltris(sulfonyliminol)]triisophthalic acid] | +6 wells | N | +2 wells | – | -84 | -88 | -96 | –
